PubChem BioAssay AID651709 (Sanford-Burnham Center for Chemical Genomics, 2012)

Target: Probable nicotinate-nucleotide adenylyltransferase (Staphylococcus aureus (strain N315)) (UniProt P65502)
Test: inhibitors of S. aureus NadD, dose response, biochemical, colorimetric, set 2 (AID 651709)
Settings: purified S. aureus NadD, colorimetric enzyme assay

Chain of Probable nicotinate-nucleotide adenylyltransferase (Staphylococcus aureus (strain N315)) (P65502 whole entry, looked up): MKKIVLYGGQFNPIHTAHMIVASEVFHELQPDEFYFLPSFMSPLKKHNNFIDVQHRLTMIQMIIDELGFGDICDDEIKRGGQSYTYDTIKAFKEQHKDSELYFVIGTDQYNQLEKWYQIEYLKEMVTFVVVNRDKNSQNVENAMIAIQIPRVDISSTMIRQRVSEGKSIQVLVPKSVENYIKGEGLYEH

C[c-]1[c-](C)[c-](C)[c-](C)[c-]1C.[Fe].c1cc2nccc(N3CCCC3)[c-]2c1 (stereo unspecified)
IC50: 50 µM
